{"source": "paper PMC4939481", "about": "(Bioorganic & medicinal chemistry letters, 2016)", "key": {"[1]": {"molecular_target": "T1, recombinant human TDP2 (hTDP2) (Homo sapiens, UniProt O95551)", "T1 sequence (O95551 1-362)": "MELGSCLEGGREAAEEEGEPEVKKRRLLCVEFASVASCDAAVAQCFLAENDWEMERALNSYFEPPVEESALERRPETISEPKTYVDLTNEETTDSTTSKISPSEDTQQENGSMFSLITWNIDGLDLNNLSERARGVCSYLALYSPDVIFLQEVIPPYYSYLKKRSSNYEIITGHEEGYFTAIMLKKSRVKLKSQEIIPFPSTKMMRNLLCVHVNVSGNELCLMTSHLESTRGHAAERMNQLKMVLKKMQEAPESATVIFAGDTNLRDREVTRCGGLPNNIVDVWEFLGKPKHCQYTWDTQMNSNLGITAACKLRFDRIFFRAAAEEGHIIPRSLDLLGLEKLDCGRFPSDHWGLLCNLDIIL", "assay": "Inhibition of recombinant human TDP2", "format": "biochemical, H. sapiens"}, "[2]": {"molecular_target": "recombinant human TDP1 (hTDP1) (Homo sapiens, UniProt Q9NUW8)", "sequence (Q9NUW8 whole entry)": "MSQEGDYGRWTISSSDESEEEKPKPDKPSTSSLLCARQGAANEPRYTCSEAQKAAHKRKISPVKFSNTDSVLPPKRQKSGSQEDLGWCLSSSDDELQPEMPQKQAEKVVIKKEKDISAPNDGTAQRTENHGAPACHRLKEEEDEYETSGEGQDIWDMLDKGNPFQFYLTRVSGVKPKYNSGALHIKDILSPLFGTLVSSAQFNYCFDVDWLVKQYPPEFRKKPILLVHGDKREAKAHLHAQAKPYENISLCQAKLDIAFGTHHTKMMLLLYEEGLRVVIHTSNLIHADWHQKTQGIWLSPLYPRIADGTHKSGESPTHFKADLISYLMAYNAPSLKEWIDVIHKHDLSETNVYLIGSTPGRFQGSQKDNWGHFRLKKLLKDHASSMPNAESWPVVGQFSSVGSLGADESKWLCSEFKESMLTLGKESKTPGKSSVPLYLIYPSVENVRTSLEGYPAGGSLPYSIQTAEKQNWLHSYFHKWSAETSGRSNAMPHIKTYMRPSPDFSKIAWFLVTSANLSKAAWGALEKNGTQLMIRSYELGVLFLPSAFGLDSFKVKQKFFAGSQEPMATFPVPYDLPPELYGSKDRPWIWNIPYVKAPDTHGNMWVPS", "assay": "Inhibition of recombinant human TDP1", "format": "biochemical, H. sapiens"}}}
{"smiles": "COc1ccc(CC2C(=O)N(c3ccc([N+](=O)[O-])cc3)N=C2C(=O)O)cc1Oc1ccc(F)cc1", "note": "(stereo not drawn) [Compound 21]", "values": [{"measurement": "IC50", "setting": "[1]", "value": 20, "unit": "µM"}, {"measurement": "IC50", "setting": "[2]", "value": "> 200", "unit": "µM"}]}
{"smiles": "O=C(Cc1ccccc1)NC(CSSCC(NC(=O)Cc1ccccc1)C(=O)O)C(=O)O", "note": "(stereo not drawn) [NSC3198]", "values": [{"measurement": "IC50", "setting": "[1]", "value": 9.5, "unit": "µM"}]}
